Legend:
Type in all cases: protein-complex assay
Glutamate NMDA receptor [1] = assay: Displacement of [3H]CPP or [3H]-CGS- 19755 from rat N-methyl-D-aspartate glutamate receptor
Glutamate NMDA receptor [2] = assay: Compound was evaluated for its ability to displace [3H]CPP ligand from N-methyl-D-aspartate glutamate receptor
Glutamate NMDA receptor [3] = assay: Compound was evaluated for its ability to displace [3H]CPP or [3H]-CGS- 19755 ligand from N-methyl-D-aspartate glutamate receptor
Glutamate NMDA receptor [4] = assay: Compound was evaluated for its ability to displace [3H]CPP ligand from N-methyl-D-aspartate (NMDA) receptor
Glutamate NMDA receptor [5] = assay: Compound was evaluated for its ability to displace [3H]-CGS- 19755 ligand from N-methyl-D-aspartate glutamate receptor
Glutamate NMDA receptor [6] = assay: (§1) Compound was evaluated for its ability to displace [3H]CPP or [3H]-CGS- 19755 ligand from N-methyl-D-aspartate (NMDA) receptor
Glutamate NMDA receptor [7] = assay: Compound was evaluated for its ability to displace [3H]-CPP ligand from N-methyl-D-aspartate (NMDA) receptor
Glutamate NMDA receptor [8] = assay: as §1; remark: listed apart in the source

| SMILES | Ki (Glutamate NMDA receptor [1]) [nM] | other results |
| --- | --- | --- |
| NC(CCCP(=O)(O)O)C(=O)O (configuration not stated) | < 1000 | Ki (Glutamate NMDA receptor [2]): 260 nM |
| NC(CCCCP(=O)(O)O)C(=O)O (configuration not stated) | – | Ki (Glutamate NMDA receptor [3]): > 1000 nM; Ki (Glutamate NMDA receptor [4]): 42 nM |
| C[C@H]1C[C@@H](CP(=O)(O)O)C[C@@H](C(=O)O)N1 | > 1000 | – |
| NC(CCc1ccccc1CP(=O)(O)O)C(=O)O (configuration not stated) | > 1000 | – |
| NC(CCCCCP(=O)(O)O)C(=O)O (configuration not stated) [AP-7] | < 1000 | Ki (Glutamate NMDA receptor [5]): 912 nM |
| C/C(=C\C(N)C(=O)O)CP(=O)(O)O (configuration not stated) [CGP-37849] | – | Ki (Glutamate NMDA receptor [6]): < 1000 nM; Ki (Glutamate NMDA receptor [7]): 35 nM |
| O=C(O)[C@@H]1C[C@H](CP(=O)(O)O)CCN1 [SELFOTEL] | – | Ki (Glutamate NMDA receptor [6]): < 1000 nM; Ki (Glutamate NMDA receptor [8]): 130 nM |

The next lines start with results.

| Ki (Glutamate NMDA receptor [1]) [nM] | SMILES | other results |
| --- | --- | --- |
| > 1000 | CC(C)([C@@H]1CCN[C@H](C(=O)O)C1)P(=O)(O)O | – |
| > 1000 | CC([C@@H]1CCN[C@H](C(=O)O)C1)P(=O)(O)O (some centres not stated) | – |
| > 1000 | O=C(O)[C@H]1NCCC[C@H]1CCP(=O)(O)O | – |
| < 1000 | C[C@@H]1CN[C@H](C(=O)O)C[C@@H]1CP(=O)(O)O | – |
| > 1000 | C[C@@H]1[C@H](CP(=O)(O)O)CCN[C@@H]1C(=O)O | – |
| < 1000 | O=C(O)[C@@H]1C[C@H](CCCP(=O)(O)O)CCN1 | – |
| < 1000 | O=C(O)[C@@H]1C[C@H](C/C=C/P(=O)(O)O)CCN1 | Ki (Glutamate NMDA receptor [5]): 72 nM |
| < 1000 | O=C(O)[C@@H]1C[C@H](/C=C/CP(=O)(O)O)CCN1 | Ki (Glutamate NMDA receptor [5]): 14 nM |

Reference: ChEMBL document CHEMBL1126172, “Modeling of competitive phosphono amino acid NMDA receptor antagonists” (J Med Chem, 1992)
